Measurements from patent publication US6544789B1, “Phosphorus-controllable recombinant expression of polypeptides in plants” (Board of Trustees, Rutgers, The State University of New …, priority 2000, dated 2003).

Legend:
APase promoter = assay: GUS expression in Pr-GUS transformants grown in sand culture (specificity of APase promoter induction); type: in vivo, Arabidopsis thaliana; parameters: key to relative GUS expression: “−” (lowest); “+/−,”; “+,”; “++,”; “+++” (highest); details: for relative GUS expression: 100 μM, 14-day-old seedlings
Method: A screening method was developed to evaluate GUS expression levels in the various transformed lines: T2 seedlings were germinated in pots containing fine granules of washed sand (40-100 mesh Fisher Scientific, Pittsburgh, Pa.). To remove trace amounts of contaminating elements, the sand was previously washed by soaking it in 0.1 M HCl for 45 minutes and then washing it extensively with ddH2O until the sand mixture reached pH 6.5. Seedlings were grown in standard phosphorus medium for 14 days before transfer to phosphorus-deficient medium. GUS expression in plants subjected to phosphorus-deficient conditions for 14 days is shown in FIGS. 4A-4D (FIG. 4A—lateral root primordium with localized GUS expression, FIG. 4B—GUS expression in several cell layers of lateral root primordium; FIG. 4C—emerging lateral root meristem; FIG. 4D—lateral root meristems (LRM) and an apical root meristem (ARM)). Seedlings were also germinated in pots containing washed sand, and then fertilized using 0.25×Hoagland's medium with or without phosphorus (0.25 mM), and examined after 10 days. GUS expression in the roots of these seedlings (FIG. 4F) or in the whole seedlings (FIG. 4G—not starved; FIG. 4H—starved) is shown. Phosphorus starvation symptoms were evident 8 days after sowing. Plant expression was examined by staining with x-gluc (i.e., 5-bromo-4-chloro-3-indolyl β-D-glucuronide), as described below, to evaluate GUS expression.
GUS activity was determined according to the method of Jefferson et al., EMBO J. 6:3901-3907 (1987). After staining, tissue was fixed in 1.5% formaldehyde-4% acetic acid-30% ethanol for 30 minutes, dehydrated through a graded ethanol series (50, 95, 100% for 20 minutes at each step), incubated 2 hours at 100% ethanol, and rehydrated through a graded ethanol series (95 and 50%, for 20 minutes each step). Rehydrated tissues were stored in H2O.
Pr-GUS transformants, germinated and grown in sand culture, were used to test the specificity of APase promoter induction by either inducing nutritional deficiencies other than P-limitation or by using such known chemical inducers of gene expression as salicylic acid (Ward et al., Plant Cell 3:1085-1094 (1991)) and jasmonic acids (Staswick, et al., Plant Physiol 96:130-136 (1991), Creelman et al., New Phytol. 75:479-490 (1992)) (Tables 1 and 2). Seedlings were germinated in pots containing washed sand and fertilized with modified 0.25×Hoagland's medium optionally lacking nitrogen (N), potassium (K), or iron (Fe). Nitrogen-free Hoagland's medium was prepared by substituting K2HPO4 for (NH4)2SO4, CaSO4 for Ca(NO3)2 and K2SO4 for KNO3. Potassium-free Hoagland's medium was prepared by substituting NaNO3 for KNO3. Iron deficient medium was prepared by removing Fe-EDTA from the medium composition. Aqueous solutions of salicylic acid (SA), jasmonic acid (JA), and mannose were supplied to 14-day-old seedlings by spraying until solutions ran off the seedlings; approximately 20 ml of 2.5-fold concentrated solution was added to the sand at the same time.
Both chemical inducers were applied at concentrations capable of strongly inducing a variety of plant genes. These treatments were compared to the effects of P removal (Table 1, where “P” is phosphorus, N is nitrogen, K is potassium, and Fe is iron, “+” indicates presence and “−” indicates absence, and relative expression is indicated on a scale of “−” (lowest), “+/−,” “+,” “++,” to “+++” (highest)) or the addition of mannose (Table 2, where is indicated on a scale of “−” (lowest), “+/−,” “+,” “++,” to “+++” (highest)). Mannose is known to induce P deficiency in plant cells by virtue of its ability to bind cellular phosphates as mannose 6-phosphate (Watkins, et al., Plant Physiol. 97:139-146 (1987)), thereby acting as an agent that associates with a phosphorus compound. […] Seventeen days after sowing, the experiment was terminated.

acid phosphatase (APase) = assay: APase activity in growth medium of B. juncea plants (p-NPP substrate, 410 nm); type: in vivo, Brassica juncea; details: after 6 days incubation
Method: Expression and secretion studies of B. juncea began with the germination of B. juncea seeds in Petri dishes on Gamborg's B-5 (Life Technologies, Gibco BRL, Grand Island, N.Y.) agar medium. Germinated seedlings were then transferred to 20 ml vials containing one-quarter-strength Hoagland's solution (Arnon et al., Soil Sci. 50:463-483 (1940)). Plants were grown in shaker-incubators (25 rpm), at 24° C. under a 16-hour photoperiod, with 150 mE/m^2/s illumination provided by a mixture of fluorescent and incandescent lamps. After 10 days, plants were transferred into 125 ml flasks with 120 ml of 0.25×Hoagland solution containing one of the following concentrations of phosphorus: 3 mM, 1 mM, 0.25 mM or 0.01 mM (i.e., phosphorus deficiency). In the low phosphorus medium, (NH4)2SO4 was substituted for NH4H2PO4. The volume of medium in each flask was adjusted daily to 120 ml and the exudate-containing media were sampled for APase activity.
Unconcentrated media samples were subjected to chromogenic determination at 410 nm. The activity of APase in the growth medium was determined using p-nitrophenyl-1-phosphate (p-NPP, Sigma Chemical Co., St. Louis, Mo.) as substrate and 50 mM Na-acetate buffer, pH 4.6, in a water bath at 37° C. (Ascencio, J., J. Plant Nutr. 20:9-26 (1997)). The reaction was stopped after 1 hour with a 1 M Na2CO3 solution and the yellow p-nitrophenol (PNP) was measured at 410 nm in a DU 640 Spectrophotometer (Beckman Instruments, Columbia, Md.). […] Thus, expression of the exuded A. thaliana APase was de-repressed by phosphorus starvation.

Structure (SMILES) | relative GUS expression (APase promoter; 1 day after treatment) | relative GUS expression (APase promoter; 3 days after treatment) | relative GUS expression (APase promoter; 5 days after treatment) | relative GUS expression (APase promoter; 7 days after treatment) | expression of GUS on addition of phosphorus to the medium (APase promoter; phosphorus-starved plants) | APase activity in exudate-containing medium (acid phosphatase (APase); 0.01 mM phosphorus) | APase activity in exudate-containing medium (acid phosphatase (APase); 0.25 mM phosphorus) | APase activity in exudate-containing medium (acid phosphatase (APase); 1 mM phosphorus) | APase activity in exudate-containing medium (acid phosphatase (APase); 3 mM phosphorus)
CC/C=C\C[C@H]1C(=O)CC[C@@H]1CC(=O)O [jasmonic acid] | − | − | − | − |  |  |  |  | 
[P] [phosphorus] |  |  |  |  | diminished | ~0.33 A410/(ml-hour) | ~0.21 A410/(ml-hour) | ~0.09 A410/(ml-hour) | approximately 0.04 A410/(ml-hour)
O=C(O)c1ccccc1O [salicylic acid] | − | + | − | +/− |  |  |  |  | 
